Measurements: patent publication US20240208998A1, “COMPOUNDS FOR USE IN THE TREATMENT OF HYPERPROLIFERATIVE DISORDERS” (FUNDACIÓ PRIVADA INSTITUT D'INVESTIGACIÓ ONCOLÓGICA DE VALL …, priority 2021, published 2024)

Tests used:
HL60 cell line = assay: Antiproliferative activity on HL60 cell line (CellTiter-Glo); format: cell-based; settings: Homo sapiens, HL-60; HL60, 72 h of treatment
Procedure: The human leukaemic cell line HL60 was grown in suspension in RPMI 1640 medium containing 10% (v/v) FBS and 1% (v/v) P/S (Life Technologies). […] Leukaemia cells were suspended at a density of 2×10^5 cells/mL in complete RPMI 1640 medium and 25 μL were seeded in each well (5×10^3 final total cells/well). A 10 μM solution of the compounds of examples 1, 12 and 21, and a 25 μM solution of all other compounds were prepared in complete medium, and then serially diluted (1:2) (as specified in Table 3 below). A solution of complete medium with DMSO was used as a vehicle control.
Twenty-five microliters of each serially diluted compound solution were added to the corresponding wells of the plate (50 μL of final volume/well). After 48 h of treatment, 50 μL of fresh 2X serially diluted compound solution was added to their corresponding wells (100 μL of final volume/well). After twenty-four additional hours, an equal volume (100 μL) of CellTiter-Glo Reagent (Promega) was added to each well, plates were shaken during 2 min and incubated at rt for 10 min. Luminescence was recorded using a Spark multimode microplate reader and an integration time of 1 s per well.

HCT116 (colon) = assay: Antiproliferative activity on other tumour cell lines (CellTiter-Glo): HCT116; format: cell-based; settings: Homo sapiens; HCT 116, 72 h of treatment
Procedure: (§1) Other human adherent cancer cell lines were cultured in their corresponding cell medium (as specified in Table 4) supplemented with 10% FBS (v/v) and 1% P/S (v/v). Twenty-four hours prior to treatment with the compounds to be tested (Examples 1, 12 and 21), the cells were seeded in 96-well plates at different densities depending of the cell line (as specified in Table 4).
(§2) Depending on the cell line, a 50, 125 or 250 μM solution of the compounds of examples 1, 12 and 21 were prepared in complete medium, and then serially diluted (1:2) (Table 5). A solution of complete medium with DMSO was used as a vehicle control.
(§3) Fifty microliters of each serially diluted compound solution was added by medium replacement in two wells (by duplicate). After 48 h of treatment, 50 μL of fresh 2X serially diluted compound solution was added to the corresponding wells of the plate (100 μL of final volume/well). After twenty-four additional hours (a total of 72 h of treatment), an equal volume (100 μL) of CellTiter-Glo Reagent (Promega) was added to each well, plates were shaken during 2 min and incubated at rt for 10 min. Luminescence was recorded using a Spark multimode microplate reader and an integration time of 1 s per well.

Hop62 (lung) = assay: Antiproliferative activity on other tumour cell lines (CellTiter-Glo): Hop62; format: cell-based; settings: Homo sapiens, HOP-62; Hop62, 72 h of treatment
Procedure: as §1, §2, §3

T98G (glioblastoma) = assay: Antiproliferative activity on other tumour cell lines (CellTiter-Glo): T98G; format: cell-based; settings: Homo sapiens, 72 h of treatment
Procedure: as §1, §2, §3

A375 (melanoma) = assay: Antiproliferative activity on other tumour cell lines (CellTiter-Glo): A375; format: cell-based; settings: Homo sapiens, A-375; A375, 72 h of treatment
Procedure: as §1, §2, §3

human TET2 construct = human TET2 construct (Homo sapiens, UniProt Q6N021, A1837G/A1840G/D1704G/D1842G/DEL1471-1702/DEL1708-1833/E1841G/F1706G/N1843S/Q1834G/V1836G); assay: Determination of TET2 binding by Surface Plasmon Resonance; settings: SPR, Biacore T200, 25° C., steady state fit to single site interaction model
Procedure: The human methylcytosine dioxygenase TET2 construct used (1129-2002 with residues 1471-1843 replaced by a 15-residue GS-linker) was expressed in a pET-28a(+)psumo vector with kanamycin resistance and an N-terminal His6 tag, and cloned in Rosetta D3 Escherichia coli competent cells. Transformed cells were cultured overnight in 10 mL of LB media supplied with kanamycin (50 μg/mL), then scaled to 1 L LB medium supplied with kanamycin (50 μg/mL) and grown at 37° C. Once the optical density (OD600) achieved 0.8, protein expression was induced with 0.4 mM isopropyl-β-thiogalactopyranoside (IPTG) overnight at 18° C. Cells were harvested by centrifugation (8,000 rpm, 4° C., 30 min) and the pellet obtained was resuspended in 15 mL of buffer A (50 mM Hepes, 150 mM NaCl, 30 mM imidazole, 2 mM β-mercaptoethanol (pH 8.0) supplemented with Pierce protease inhibitor cocktail (ThermoFisher Scientific)) and lysed by sonication (1 min 40 s: 10 cycles×10 s ON, 30 s OFF, A=35%, T=19° C.) followed by two consecutive centrifugations (8,000 rpm, 4° C., 30 min) to clarify the lysate.
The TET2 protein was purified using an AKTA Start system (GE Healthcare, Uppsala, Sweden) by two-step purification procedure: one His-affinity chromatography followed by a size exclusion chromatography. First, the protein fraction obtained during the lysis (supernatant) was applied to a 5 mL HisTrap HP column (GE Healthcare), washed with buffer A (50 mM Hepes, 150 mM NaCl, 30 mM imidazole, 2 mM […] (pH 8.0)) and the bound protein was eluted with buffer B (50 mM Hepes, 150 mM NaCl, 250 mM imidazole, 2 mM β-mercaptoethanol (pH 8.0)). The eluted protein-containing fractions were pooled and concentrated up to 4 mL for the last purification step: a size exclusion chromatography (HiPrep 16/60 Sephacryl S-100 HR) in 50 mM Hepes, 150 mM NaCl, 2 mM β-mercaptoethanol (pH 8.0). Finally, the mass and purity of the protein were verified by SDS-electrophoresis and mass spectrometry.
The binding of compounds of the examples was determined by Surface Plasmon Resonance (SPR) using a Biacore T200 SPR biosensor instrument (GE Healthcare, Uppsala, Sweden) at 25° C. The human TET2 construct was immobilized on a CM5 sensor chip using a standard covalent immobilization via amine coupling following the activation of the carboxymethyl dextran matrix of the sensor chip (injection of a solution containing 0.1 M N-hydroxysuccinimide and 0.4 M 1-ethyl-3-[3-(dimethylamino)propyl]carbodiimide hydrochloride at a flow rate of 15 μL/min for 7 min). The protein immobilization was achieved after the injection of 5 μg/mL TET2 in 10 mM sodium acetate (pH 4.0) at a flow rate of 5 μL/min. Unreacted activated groups of the dextran matrix were deactivated by injection of 1 M ethanolamine hydrochloride for 7 min at a flow rate of 15 μL/min. The corresponding matrix activation and protein immobilization were performed using as a running buffer a phosphate buffered saline solution (1.05× PBS: 10 mM phosphate, pH 7.4, 150 mM NaCl). The screened compounds were prepared in a 20 mM stock solution in DMSO and diluted with 1.05× PBS to achieve a final 5% (v/v) DMSO concentration. The running buffer of the interaction assays consisted of 1×PBS, 5% (v/v) DMSO. The flow rate used for the screening was 60 μL/min and the ligand association and dissociation times set were 60 s and 120 s, respectively.
For data analysis the software used was the Biacore T200 Evaluation software. Different corrections were applied. First, the nonspecific binding to the chip surface and the baseline drift were corrected subtracting the signals of a reference surface (where the immobilization procedure was carried out without proteins) to the signals obtained on the TET2 surface. Second, a series of solvent standards (solvent correction) were introduced to remove the differences derived from the DMSO. Finally, the background was corrected subtracting blank injections (blank subtraction) to the injected compound signals.

MDA-MB-468 (breast) = assay: Antiproliferative activity on other tumour cell lines (CellTiter-Glo): MDA-MB-468; format: cell-based; settings: Homo sapiens, MD-MB-468, 72 h of treatment
Procedure: as §1, §2, §3

MCF7 (breast) = assay: Antiproliferative activity on other tumour cell lines (CellTiter-Glo): MCF7; format: cell-based; settings: Homo sapiens; MCF7, 72 h of treatment
Procedure: as §1, §2, §3

LN229 (glioblastoma) = assay: Antiproliferative activity on other tumour cell lines (CellTiter-Glo): LN229; format: cell-based; settings: Homo sapiens, LN-229; LN229, 72 h of treatment
Procedure: as §1, §2, §3

| EC50 (HL60 cell line) | EC50 (HCT116 (colon)) | EC50 (Hop62 (lung)) | EC50 (T98G (glioblastoma)) | EC50 (A375 (melanoma)) | Kd (human TET2 construct) | EC50 (MDA-MB-468 (breast)) | melting point | EC50 (MCF7 (breast)) | EC50 (LN229 (glioblastoma)) | Structure (SMILES) |
| --- | --- | --- | --- | --- | --- | --- | --- | --- | --- | --- |
| 0.113 µM | 12.1 µM | 40.1 µM | 73.7 µM | 1.4 µM | 16 µM | 16 µM | 210 to 212 °C | 14.6 µM | 3.3 µM | Cc1[nH]c2ccccc2c1-c1csc(NC(=O)Cc2cn3ccsc3n2)n1 [Example 1, 2-(imidazo[2,1-b]thiazol-6-yl)-N-[4-(2-methyl-1H-indol-3-yl)thiazol-2-yl]acetamide] |
| 0.912 µM | – | – | – | – | 1 µM | – | 160 to 162 °C | – | – | Cc1ccc2[nH]cc(-c3csc(NC(=O)Cc4cn5ccsc5n4)n3)c2c1 [Example 24, 2-(imidazo[2,1-b]thiazol-6-yl)-N-[4-(5-methyl-1H-indol-3-yl)thiazol-2-yl]acetamide] |
